# Measurements published in patent publication US10508104B2, “6-hydroxy-5-(phenyl/heteroarylsulfonyl)pyrimidin-4(1H)-one as APJ agonists” (Bristol-Myers Squibb Company, priority 2016, dated 2019).
# Molecular target: human APJ receptor (Homo sapiens (Human), UniProt P35414)
# Assay: Intracellular cAMP accumulation assay (APJ hcAMP, HTRF)
# Format: cell-based
# Conditions: human APJ, cAMP accumulation; read-out: Human APJ cAMP EC50 Potency range
# How it was run: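 HEK293 cells stably expressing human APJ, 5,000 per well, incubated 30 min at rt with compound, […] and 2 μM forskolin. cAMP measured by HTRF against a cAMP standard curve as inhibition of forskolin-driven production. EC50 from variable-slope sigmoidal fit.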
# Chain of human APJ receptor (P35414 whole entry): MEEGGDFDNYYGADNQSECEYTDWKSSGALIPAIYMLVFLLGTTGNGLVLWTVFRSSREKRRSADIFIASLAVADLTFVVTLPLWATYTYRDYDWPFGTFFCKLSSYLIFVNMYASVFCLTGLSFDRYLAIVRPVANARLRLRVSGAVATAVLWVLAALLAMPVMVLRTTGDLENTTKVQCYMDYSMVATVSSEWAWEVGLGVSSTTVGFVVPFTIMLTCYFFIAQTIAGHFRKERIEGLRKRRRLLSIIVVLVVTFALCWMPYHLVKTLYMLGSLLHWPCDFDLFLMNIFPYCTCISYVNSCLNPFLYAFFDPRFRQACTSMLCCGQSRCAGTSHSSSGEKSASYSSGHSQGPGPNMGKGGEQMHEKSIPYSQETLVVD
row,Structure (SMILES),EC50 [nM]
1,"CCCCc1nc(O)c(S(=O)(=O)c2ccc(Br)cc2)c(=O)n1[C@@H](C)c1ccccc1OC [Example 238, 5-(4-bromobenzenesulfonyl)-2-butyl-6-hydroxy-3-[(1S)-1-(2-methoxyphenyl)ethyl]-3,4-dihydropyrimidin-4-one]",100 to 300
2,"CCCCCc1nc(=O)c(S(=O)(=O)c2ccc(Br)cc2)c(O)n1[C@@H](COC)c1ccccc1 [Example 247, 5-(4-bromobenzenesulfonyl)-6-hydroxy-3-[(1R)-2-methoxy-1-phenylethyl]-2-pentyl-3,4-dihydropyrimidin-4-one]",10 to 100
3,"CCCCc1nc(O)c(S(=O)(=O)c2ccc(Br)cc2)c(=O)n1[C@H](CC)c1cccc2c1OCO2 [Example 254, 3-[(1R)-1-(2H-1,3-benzodioxol-4-yl)propyl]-5-(4-bromobenzenesulfonyl)-2-butyl-6-hydroxy-3,4-dihydropyrimidin-4-one]",10 to 100
4,"CCCCc1nc(=O)c(S(=O)(=O)c2ccc(-c3cncc(F)c3)cc2)c(O)n1[C@@H](CC)c1cccc2c1OCO2 [Example 258, 1-[(1S)-1-(2H-1,3-benzodioxol-4-yl)propyl]-2-butyl-5-[4-(5-fluoropyridin-3-yl)benzenesulfonyl]-6-hydroxy-1,4-dihydropyrimidin-4-one]",0.01 to 10
5,"CCCCc1nc(=O)c(S(=O)(=O)c2ccc(-c3ccncc3C)cc2)c(O)n1[C@H](CC)c1cccc2c1OCO2 [Example 259, 1-[(1R)-1-(2H-1,3-benzodioxol-4-yl)propyl]-2-butyl-6-hydroxy-5-[4-(3-methylpyridin-4-yl)benzenesulfonyl]-1,4-dihydropyrimidin-4-one]",0.01 to 10
6,"CCCCc1nc(=O)c(S(=O)(=O)c2ccc(-c3cccnc3C)cc2)c(O)n1[C@H](CC)c1cccc2c1OCO2 [Example 260, 1-[(1R)-1-(2H-1,3-benzodioxol-4-yl)propyl]-2-butyl-6-hydroxy-5-[4-(2-methylpyridin-3-yl)benzenesulfonyl]-1,4-dihydropyrimidin-4-one]",0.01 to 10
7,"CCCCc1nc(O)c(S(=O)(=O)c2ccc(Br)cc2)c(=O)n1[C@@H](CC)c1cccc2c1OCO2 [Example 261, 3-[(1S)-1-(2H-1,3-benzodioxol-4-yl)propyl]-5-(4-bromobenzenesulfonyl)-2-butyl-6-hydroxy-3,4-dihydropyrimidin-4-one]",0.01 to 10
8,"CCCCc1nc(=O)c(S(=O)(=O)c2ccc(-c3ccc(F)nc3C)cc2)c(O)n1[C@H](CC)c1cccc2c1OCO2 [Example 262, 1-[(1R)-1-(2H-1,3-benzodioxol-4-yl)propyl]-2-butyl-5-[4-(6-fluoro-2-methylpyridin-3-yl)benzenesulfonyl]-6-hydroxy-1,4-dihydropyrimidin-4-one]",0.01 to 10
9,"CCCCc1nc(=O)c(S(=O)(=O)c2ccc(-c3cccnc3C)cc2)c(O)n1[C@@H](CC)c1cccc2c1OCO2 [Example 263, 1-[(1S)-1-(2H-1,3-benzodioxol-4-yl)propyl]-2-butyl-6-hydroxy-5-[4-(2-methylpyridin-3-yl)benzenesulfonyl]-1,4-dihydropyrimidin-4-one]",0.01 to 10
10,"CCCCc1nc(=O)c(S(=O)(=O)c2ccc(-c3ccc(F)nc3C)cc2)c(O)n1[C@@H](CC)c1cccc2c1OCO2 [Example 264, 1-[(1S)-1-(2H-1,3-benzodioxol-4-yl)propyl]-2-butyl-5-[4-(6-fluoro-2-methylpyridin-3-yl)benzenesulfonyl]-6-hydroxy-1,4-dihydropyrimidin-4-one]",0.01 to 10
11,"CCCCc1nc(=O)c(S(=O)(=O)c2ccc(-c3ccncc3C)cc2)c(O)n1[C@@H](CC)c1ccc(C#N)cc1 [Example 265, 4-[(1S)-1-{2-butyl-6-hydroxy-5-[4-(3-methylpyridin-4-yl)benzenesulfonyl]-4-oxo-1,4-dihydropyrimidin-1-yl}propyl]benzonitrile]",0.01 to 10

# Continued, values first:
row,EC50 [nM],Structure (SMILES)
1,0.01 to 10,"CCCCc1nc(=O)c(S(=O)(=O)c2ccc(-c3ccnc(F)c3C)cc2)c(O)n1[C@@H](C)c1ccccc1OC [Example 239, 2-butyl-5-[4-(2-fluoro-3-methylpyridin-4-yl)benzenesulfonyl]-6-hydroxy-1-[(1S)-1-(2-methoxyphenyl)ethyl]-1,4-dihydropyrimidin-4-one]"
2,0.01 to 10,"CCCCc1nc(=O)c(S(=O)(=O)c2ccc(-c3ccc(F)nc3C)cc2)c(O)n1[C@@H](C)c1ccccc1OC [Example 240, 2-butyl-5-[4-(6-fluoro-2-methylpyridin-3-yl)benzenesulfonyl]-6-hydroxy-1-[(1S)-1-(2-methoxyphenyl)ethyl]-1,4-dihydropyrimidin-4-one]"
3,0.01 to 10,"CCCCc1nc(=O)c(S(=O)(=O)c2ccc(-c3cncc(F)c3)cc2)c(O)n1[C@@H](C)c1ccc(OC)cc1 [Example 241, 2-butyl-5-[4-(5-fluoropyridin-3-yl)benzenesulfonyl]-6-hydroxy-1-[(1S)-1-(4-methoxyphenyl)ethyl]-1,4-dihydropyrimidin-4-one]"
4,0.01 to 10,"CCCCCc1nc(=O)c(S(=O)(=O)c2ccc(-c3ccnc(F)c3C)cc2)c(O)n1[C@@H](COC)c1ccccc1 [Example 242, 5-[4-(2-fluoro-3-methylpyridin-4-yl)benzenesulfonyl]-6-hydroxy-1-[(1R)-2-methoxy-1-phenylethyl]-2-pentyl-1,4-dihydropyrimidin-4-one]"
5,0.01 to 10,"CCCCc1nc(=O)c(S(=O)(=O)c2ccc(-c3ccnc(F)c3C)cc2)c(O)n1[C@H]1CCCc2ccccc21 [Example 243, 2-butyl-5-[4-(2-fluoro-3-methylpyridin-4-yl)benzenesulfonyl]-6-hydroxy-1-[(1S)-1,2,3,4-tetrahydronaphthalen-1-yl]-1,4-dihydropyrimidin-4-one]"
6,0.01 to 10,"CCCCc1nc(=O)c(S(=O)(=O)c2ccc(-c3ccnc(F)c3C)cc2)c(O)n1[C@@H](C)c1ccc(OC)cc1 [Example 244, 2-butyl-5-[4-(2-fluoro-3-methylpyridin-4-yl)benzenesulfonyl]-6-hydroxy-1-[(1S)-1-(4-methoxyphenyl)ethyl]-1,4-dihydropyrimidin-4-one]"
7,0.01 to 10,"CCCCCc1nc(=O)c(S(=O)(=O)c2ccc(-c3ccncc3C)cc2)c(O)n1[C@@H](COC)c1ccccc1 [Example 245, 6-hydroxy-1-[(1R)-2-methoxy-1-phenylethyl]-5-[4-(3-methylpyridin-4-yl)benzenesulfonyl]-2-pentyl-1,4-dihydropyrimidin-4-one]"
8,0.01 to 10,"CCCCc1nc(O)c(S(=O)(=O)c2ccc(Br)cc2)c(=O)n1[C@@H](C)c1ccc(OC)cc1 [Example 246, 5-(4-bromobenzenesulfonyl)-2-butyl-6-hydroxy-3-[(1S)-1-(4-methoxyphenyl)ethyl]-3,4-dihydropyrimidin-4-one]"
9,0.01 to 10,"CCCCCc1nc(=O)c(S(=O)(=O)c2ccc(-c3cncc(F)c3)cc2)c(O)n1[C@@H](COC)c1ccccc1 [Example 248, 5-[4-(5-fluoropyridin-3-yl)benzenesulfonyl]-6-hydroxy-1-[(1R)-2-methoxy-1-phenylethyl]-2-pentyl-1,4-dihydropyrimidin-4-one]"
10,0.01 to 10,"CCCCCc1nc(=O)c(S(=O)(=O)c2ccc(-c3cccnc3C)cc2)c(O)n1[C@@H](COC)c1ccccc1 [Example 249, 6-hydroxy-1-[(1R)-2-methoxy-1-phenylethyl]-5-[4-(2-methylpyridin-3-yl)benzenesulfonyl]-2-pentyl-1,4-dihydropyrimidin-4-one]"
11,0.01 to 10,"CCCCCc1nc(=O)c(S(=O)(=O)c2ccc(-c3ccc(F)nc3C)cc2)c(O)n1[C@@H](COC)c1ccccc1 [Example 250, 5-[4-(6-fluoro-2-methylpyridin-3-yl)benzenesulfonyl]-6-hydroxy-1-[(1R)-2-methoxy-1-phenylethyl]-2-pentyl-1,4-dihydropyrimidin-4-one]"
12,0.01 to 10,"CCCCc1nc(=O)c(S(=O)(=O)c2ccc(-c3ccncc3C)cc2)c(O)n1[C@@H](COC)c1cccc(C#N)c1 [Example 251, 3-[(1R)-1-{2-butyl-6-hydroxy-5-[4-[3-methylpyridin-4-yl)benzenesulfonyl]-4-oxo-1,4-dihydropyrimidin-1-yl}-2-methoxyethyl] benzonitrile]"
13,0.01 to 10,"CCCCc1nc(=O)c(S(=O)(=O)c2ccc(-c3ccncc3C)cc2)c(O)n1[C@@H](CC)c1ccc2c(c1)OCO2 [Example 252, 1-[(1S)-1-(2H-1,3-benzodioxol-5-yl)propyl]-2-butyl-6-hydroxy-5-[4-(3-methylpyridin-4-yl)benzenesulfonyl]-1,4-dihydropyrimidin-4-one]"
14,0.01 to 10,"CCCCc1nc(=O)c(S(=O)(=O)c2ccc(-c3ccnc(F)c3C)cc2)c(O)n1[C@@H](COC)c1cccc(C#N)c1 [Example 253, 3-[(1R)-1-{2-butyl-5-[4-(2-fluoro-3-methylpyridin-4-yl)benzenesulfonyl]-6-hydroxy-4-oxo-1,4-dihydropyrimidin-1-yl}-2-methoxyethyl] benzonitrile]"
15,0.01 to 10,"CCCCc1nc(=O)c(S(=O)(=O)c2ccc(-c3cncc(F)c3)cc2)c(O)n1[C@H](CC)c1cccc2c1OCO2 [Example 255, 1-[(1R)-1-(2H-1,3-benzodioxol-4-yl)propyl]-2-butyl-5-[4-(5-fluoropyridin-3-yl)benzenesulfonyl]-6-hydroxy-1,4-dihydropyrimidin-4-one]"
16,0.01 to 10,"CCCCc1nc(=O)c(S(=O)(=O)c2ccc(-c3ccncc3C)cc2)c(O)n1[C@@H](CC)c1cccc2c1OCO2 [Example 256, 1-[(1S)-1-(2H-1,3-benzodioxol-4-yl)propyl]-2-butyl-6-hydroxy-5-[4-(3-methylpyridin-4-yl)benzenesulfonyl]-1,4-dihydropyrimidin-4-one]"
17,0.01 to 10,"CCCCc1nc(=O)c(S(=O)(=O)c2ccc(-c3ccnc(F)c3C)cc2)c(O)n1[C@@H](CC)c1cccc2c1OCO2 [Example 257, 1-[(1S)-1-(2H-1,3-benzodioxol-4-yl)propyl]-2-butyl-5-[4-(2-fluoro-3-methylpyridin-4-yl)benzenesulfonyl]-6-hydroxy-1,4-dihydropyrimidin-4-one]"
